Data reported in patent US9522908B2, “Ezrin inhibitors and methods of making and using” (Georgetown University, priority 2010, dated 2016).

Key:
[1] = molecular target: T1, ezrin T567 phosphorylation by PKC,τ (Mus musculus, UniProt P26040); experiment: In vitro kinase assay: recombinant ezrin T567 phosphorylation by PKC,τ; assay type: biochemical; conditions: phosphospecific antibody immunoblot densitometry
T1 construct: Recombinant full length ezrin was prepared to a concentration of 100 μg/ml; host or cells: E. coli M15pREP4 (ezrin)
T1 sequence (P26040 whole entry): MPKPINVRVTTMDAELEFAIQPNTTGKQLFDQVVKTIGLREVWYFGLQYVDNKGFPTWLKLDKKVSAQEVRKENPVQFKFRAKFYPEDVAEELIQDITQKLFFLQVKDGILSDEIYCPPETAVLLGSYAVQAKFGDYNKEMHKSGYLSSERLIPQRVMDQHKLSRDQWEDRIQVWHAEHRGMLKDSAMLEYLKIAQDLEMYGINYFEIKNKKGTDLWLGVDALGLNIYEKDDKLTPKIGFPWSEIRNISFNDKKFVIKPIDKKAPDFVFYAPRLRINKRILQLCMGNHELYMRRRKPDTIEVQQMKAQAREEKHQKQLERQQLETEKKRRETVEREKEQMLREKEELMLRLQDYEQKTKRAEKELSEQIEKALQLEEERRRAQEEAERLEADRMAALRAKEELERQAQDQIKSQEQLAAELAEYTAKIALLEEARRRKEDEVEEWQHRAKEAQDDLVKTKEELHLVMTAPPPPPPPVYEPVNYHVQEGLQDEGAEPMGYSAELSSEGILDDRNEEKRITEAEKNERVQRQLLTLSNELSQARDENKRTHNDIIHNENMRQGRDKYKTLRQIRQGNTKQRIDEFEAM
Method: (§1) FIG. 2 illustrates NSC305787 and NSC668394 inhibit ezrin T567 phosphorylation. (A) K7M2 metastatic OS cell line was treated with NSC305787 (10 μM) and NSC668394 (10 μM) for 6 hours. […] The effect of NSC305787 and NSC668394 on recombinant ezrin phosphorylation by recombinant PKC, was tested in an in vitro kinase assay. Phoshorylation of ezrin was detected by a phosphospecific antibody following PAGE and immunoblotting. Experiments were repeated three times and densitometric analysis of bands was used for calculation of % inhibition (graphs). Error bars represents s.d. from three independent experiments. Kinase activities of PKC,τ, PKC,α and PKC,γ were also evaluated with a nonspecific substrate in the presence of NSC305787 and NSC668394 by a radioactive in vitro kinase assay. Data analysis was done by using a sigmoidal dose-response equation where log EC50 for each curve with the ezrin substrate and the non-specific substrate were compared to each other (P=0.0118 for NSC305787 and P=0.0084 for NSC668394).
(§2) 500 ng of recombinant ezrin protein in kinase assay mix (200 μM ATP) was incubated with the compounds at 1-100 μM concentrations for 15 minutes on ice, then 50 ng PKC,τ (Millipore, Billerica, Mass.) was added. Reaction was performed at 30° C. for 30 min and stopped by adding 2× sample buffer. […]

PKC,τ, PKC,α and PKC,γ = experiment: Radioactive in vitro kinase assay of PKC isoforms with nonspecific substrate; assay type: biochemical
Method: as §1, §2

ezrin in K7M2 OS cells = molecular target: T2, ezrin in K7M2 OS cells (Mus musculus, UniProt P26040); experiment: Endogenous ezrin T567 phosphorylation and actin binding in K7M2 cells (immunoprecipitation/immunoblot); assay type: cell-based; conditions: 10 μM
T2 construct: endogenous in cells; host or cells: K7M2 osteosarcoma cells
T2 sequence (P26040 whole entry): as above
Method: (§3) K7M2 cells that were treated with embodied compounds and resolved protein lysates were immunoblotted for co-precipitated phosphorylated ezrin (TOP), or actin (BOTTOM). 4.0×10^6 K7M2 cells were plated in 15 cm dishes. After 24 h, the plates are at least 70% confluent. Media was removed and 10 μM of compound in SF DMEM was added. After the ezrin protein was incubated for 5 h with the indicated compound, the plates were lysed with PLB containing Calyculin A. 2 μL of Ezrin Ab and 10 μM of the compound (prepared in PLB) were added to the lysate and allowed to incubate overnight (14 h), followed by tumbling with Agarose IgG beads. The mixture was run on 10% acrylamide gel and transferred overnight.
as §3, with “removed and either 7 μM or 10 μM” for “removed and 10 μM”
For analysis of actin binding to FL and mutant ezrin, K12 cell lysate was incubated with recombinant ezrin protein, then subjected to immunoprecipitation with ezrin antibody (Sigma, St. Louis, Mo.) and immunoblotted with actin antibody (Santa Cruz, Santa Cruz, Calif.). For analysis of inhibition of small molecules on ezrin phosphorylation and actin binding, K7M2 cell lysates were treated with compounds at 10 μM concentration for 6 hours, followed by immunoprecipitation with the ezrin antibody and immunoblotted with phospho-ezrin (Cell Signaling, Danvers, Mass.), actin and ezrin antibodies.

K7M2 cells = experiment: Invasion of HUVEC monolayer by K7M2 cells (ECIS, xCELLigence); assay type: cell-based; conditions: 1 μM and 10 μM, vs control 1% DMSO
Method: FIG. 3 illustrates NSC305787 and NSC668394 inhibit ezrin mediated invasion of OS cells. (A) Endogenous ezrin protein levels in K12 and K7M2 cells are shown. Equal loading is determined by blotting with an actin antibody. […] Error bars represent standard deviation from duplicate data points. The experiments were performed in duplicates. Cell index is a measurement parameter with no units. In this assay a decrease in cell index represents invasion of HUVEC layer by OS cells. It is measured according to the following formula: Cell index=((Rt−R0)/F where, Rt is resistance at time point t, R0 is background resistance (measured with media alone, no cells), and F is frequency at which measurement is taken (10 kHz).
The anti-invasive potential of NSC305787 and NSC668394 were evaluated by using electric cell impedance sensing (ECIS) on a Roche xCELLigence system (Roche, Indianapolis, Ind.). Briefly, HUVEC cells (25,000/well) were seeded in a 96-well plate in EGM-2 media (Lonza, Basel, CH). Following formation of a confluent HUVEC monolayer (app 32 hrs), EGM-2 media was aspirated and a layer of OS cells (10,000 cells/well) was added in DMEM media containing the compounds. This time point was accepted as 0 hr of treatment and invasion was monitored during the following 6 hrs by measuring changes in resistance at the cell-electrode interphase.

For `OC(c1cc(C23CC4CC(CC(C4)C2)C3)nc2c(Cl)cc(Cl)cc12)C1CCCCN1` (stereo not shown) [NSC305787], the IC50 [1] was 5.5 µM, the “concentration to inhibit all three PKC isoforms” value (PKC,τ, PKC,α and PKC,γ; nonspecific substrate) was ~50 µM and the “fold higher concentration to inhibit PKC isoforms than to inhibit ezrin phosphorylation” value (PKC,τ, PKC,α and PKC,γ; nonspecific substrate vs ezrin substrate) was 10 fold. The “cellular ezrin protein levels” value (ezrin in K7M2 OS cells) was “without altering cellular ezrin protein levels”, the “T567 phosphorylation of endogenous ezrin” value (ezrin in K7M2 OS cells; 6 hours) was “inhibited” and the “actin binding of ezrin” value (ezrin in K7M2 OS cells; 6 hours) was “inhibited”. The “invasion of K7M2 cells through HUVEC monolayer” value (K7M2 cells) was “inhibited invasion”.
